# Measured values: patent US12276657B2, “Detection of PAR in the CSF of patients with Parkinson's disease” (The Johns Hopkins University, priority 2017, dated 2025)
# Residues, ends and D or L forms follow the SMILES beside them. *: point of attachment. Cbz = O=C(OCc1ccccc1)*; CH2F = FC*
# Experiments:
# primary cortical neurons = assay: Cell death of primary cortical neurons, Hoechst and propidium iodide staining; format: cell-based, mouse; conditions: for α-syn PFF toxicity (cell death, FIGS. 47 and 48): pre-treated 1 h: ABT-888 10 μM, Z-VAD 20 μM, Nec-1 20 μM, 3-MA 500 μM, α-syn PFF 14 days; for α-syn PFF-mediated cell death (PI staining): inhibitor pre-incubated 1 h (ABT-888 10 μM, AG-014699 1 μM, BMN 673 10 μM), α-syn PFF 5 μg/ml 14 days
# Protocol: SH-SYSY cells (ATCC) were cultured in DMEM containing 10% fetal bovine serum and penicillin/streptomycin at 37° C. under 5% CO2. The cells were transfected using PolyFect reagent (Qiagen) according to the manufacturer's instructions. Primary cortical neurons from WT or PARP1 KO embryos were prepared. Briefly, the primary cortical neurons were cultured at embryonic day 16 in neurobasal media supplemented with B-27, 0.5 mM L-glutamine, penicillin and streptomycin (Invitrogen, Grand Island, NY). The neurons were replaced to fresh medium every 3-4 days. ABT-888 (10 μM), AG-014699 (1 μM), BMN 673 (10 μM), Z-VAD (20 μM), Nec-1 (20 μM) or 3-MA (500 μM) was pretreated to neurons 1 h before α-syn PFF treatment. α-syn PFF were added at 7 days in vitro (DIV) and further incubated for indicated times followed by cell death assay or biochemical experiments. Primary neurons were infected with AAV2-control sgRNA or AAV2-PARP1 sgRNA (ViGene Bioscineces, Rockville, MD, USA), and AAV-α-syn WT or AAV-α-syn A53T at DIV 4-5.
# Percent of cell death was determined by staining with 7 μM Hoechst 33342 and 2 μM propidium iodide (PI) (Invitrogen, Carlsbas, CA). Images were taken and counted by Zeiss microscope equipped with automated computer assisted software (Axiovision 4.6, Carl Zeiss, Dublin, CA, USA).
# PARP = target: T1, PARP (Mus musculus, UniProt P11103); assay: α-syn PFF-induced PARP activation (PAR accumulation) in primary cortical neurons, western blot; format: cell-based; conditions: inhibitor pre-incubated 1 h (ABT-888 10 μM, AG-014699 1 μM, BMN 673 10 μM), then α-syn PFF
# T1 construct: Primary cortical neurons from WT or PARP1 KO embryos were prepared; endogenous in cells; host or cells: primary mouse cortical neurons (embryonic day 16)
# Protocol: After homogenization, samples were rotated at 4° C. for 30 min for complete lysis, the homogenate was centrifuged at 15,000 g for 20 min and the supernatants were used for further analysis. Protein levels were quantified using the BCA assay (Pierce, Rockford, Ill., USA), samples were separated using SDS-polyacrylamide gels and transferred onto nitrocellulose membranes. The membranes were blocked with 5% non-fat milk in TBS-T (Tris-buffered saline with 0.1% TWEEN-20® (Polysorbate 20)) for 1 h, probed using primary antibodies (Table 3) and incubated with appropriate HRP-conjugated secondary antibodies. The bands were visualized by ECL substrate.
# Primary cortical neurons from WT or PARP1 KO embryos were prepared. Briefly, the primary cortical neurons were cultured at embryonic day 16 in neurobasal media supplemented with B-27, 0.5 mM L-glutamine, penicillin and streptomycin (Invitrogen, Grand Island, NY). The neurons were replaced to fresh medium every 3-4 days. […] Primary neurons were infected with AAV2-control sgRNA or AAV2-PARP1 sgRNA (ViGene Bioscineces, Rockville, MD, USA), and AAV-α-syn WT or AAV-α-syn A53T at DIV 4-5.
# α-syn [1] = assay: α-syn aggregation and PARP activation in primary cortical neurons transduced with AAV-α-syn (NMDA or PAR delivery); format: cell-based, mouse; conditions: for NMDA-induced PARP activation / NMDA-induced α-syn aggregation: 10 μM ABT-888 or 1 μM AG-014699 1 h, then 500 μM NMDA 5 min
# SH-SYSY cells = assay: α-syn aggregation and PARP activation in SH-SYSY cells transfected with α-syn (MNNG or PAR delivery); format: cell-based; conditions: for MNNG-induced PARP activation / MNNG-induced α-syn aggregation: 10 μM ABT-888 or 1 μM AG-014699 1 h, then 50 μM MNNG 15 min
# α-syn [2] = assay: In vitro fibrillization of recombinant α-syn (immunoblot, thioflavin T, TEM); format: biochemical, mouse; conditions: for α-syn fibrillization with other polymer or monomer: 5 nM, 36 h
# WT mice = assay: Intrastriatal injection of PAR-α-syn PFF, α-syn PFF or PAR in WT mice; format: in vivo, mouse
# From the text: There is no significant loss of DA neuron contralateral to the injection side at any time point (FIGS. 81 and 82).
# [3] = WT cultures, 500 μM NMDA 5 min, 6 h after
# T1 sequence (P11103 whole entry): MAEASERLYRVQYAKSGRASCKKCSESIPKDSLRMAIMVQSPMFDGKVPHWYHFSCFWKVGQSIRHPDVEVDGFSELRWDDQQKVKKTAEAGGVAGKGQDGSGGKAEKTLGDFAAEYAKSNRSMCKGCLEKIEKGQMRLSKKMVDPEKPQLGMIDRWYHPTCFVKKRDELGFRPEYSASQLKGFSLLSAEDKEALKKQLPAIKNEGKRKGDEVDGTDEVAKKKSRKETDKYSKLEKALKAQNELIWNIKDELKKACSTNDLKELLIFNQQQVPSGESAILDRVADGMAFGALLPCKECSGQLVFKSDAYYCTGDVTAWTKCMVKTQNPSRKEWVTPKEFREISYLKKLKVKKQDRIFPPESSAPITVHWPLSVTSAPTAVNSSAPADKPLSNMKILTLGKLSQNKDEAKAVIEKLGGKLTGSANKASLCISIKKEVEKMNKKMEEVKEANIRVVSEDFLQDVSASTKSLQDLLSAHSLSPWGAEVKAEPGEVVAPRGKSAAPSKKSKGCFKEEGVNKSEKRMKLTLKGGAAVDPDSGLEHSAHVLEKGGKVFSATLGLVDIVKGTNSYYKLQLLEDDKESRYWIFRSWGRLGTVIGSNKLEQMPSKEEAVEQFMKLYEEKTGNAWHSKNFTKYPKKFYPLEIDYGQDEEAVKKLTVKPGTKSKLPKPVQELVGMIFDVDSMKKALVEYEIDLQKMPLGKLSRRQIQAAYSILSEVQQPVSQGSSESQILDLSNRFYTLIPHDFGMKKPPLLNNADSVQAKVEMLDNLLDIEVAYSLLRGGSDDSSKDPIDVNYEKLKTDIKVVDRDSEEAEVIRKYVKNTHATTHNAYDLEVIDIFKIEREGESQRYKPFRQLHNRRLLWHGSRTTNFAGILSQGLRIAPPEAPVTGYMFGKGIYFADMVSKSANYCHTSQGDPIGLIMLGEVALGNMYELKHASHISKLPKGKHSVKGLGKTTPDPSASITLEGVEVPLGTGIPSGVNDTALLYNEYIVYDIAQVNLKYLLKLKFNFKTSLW
compound,measurement,setting,value
Cn1cnc(N)c2ncnc1-2 [3-Methyladenine],"α-syn PFF toxicity (cell death, FIGS. 47 and 48)",primary cortical neurons,had no effect
"C[C@]1(c2nc3c(C(N)=O)cccc3[nH]2)CCCN1 [ABT-888, veliparib]",α-syn PFF-mediated PARP activation,PARP,prevents
same,α-syn PFF-mediated cell death (PI staining),primary cortical neurons,prevents
same,"α-syn PFF toxicity (cell death, FIGS. 47 and 48)",primary cortical neurons,prevents α-syn PFF toxicity
same,NMDA-induced PARP activation,α-syn [1],prevent
same,NMDA-induced α-syn aggregation,α-syn [1],prevent
same,MNNG-induced PARP activation,SH-SYSY cells,prevent
same,MNNG-induced α-syn aggregation,SH-SYSY cells,prevent
"Nc1ncnc2c1ncn2[C@@H]1O[C@H](COP(=O)(O)OP(=O)(O)OC[C@H]2OC(O)[C@H](O)[C@@H]2O)[C@@H](O)[C@H]1O (some centres unmarked) [ADP ribose monomer, ADP ribose]",α-syn fibrillization with other polymer or monomer,α-syn [2]; 37° C.,had no effect on α-syn fibrillization
"CNCc1ccc(-c2[nH]c3cc(F)cc4c3c2CCNC4=O)cc1 [AG-014699, Rucaparib]",α-syn PFF-mediated PARP activation,PARP,prevents
same,α-syn PFF-mediated cell death (PI staining),primary cortical neurons,prevents
same,NMDA-induced PARP activation,α-syn [1],prevent
same,NMDA-induced α-syn aggregation,α-syn [1],prevent
same,MNNG-induced PARP activation,SH-SYSY cells,prevent
same,MNNG-induced α-syn aggregation,SH-SYSY cells,prevent
"Cn1ncnc1[C@H]1c2n[nH]c(=O)c3cc(F)cc(c23)N[C@@H]1c1ccc(F)cc1 [BMN 673, Talazoparib]",α-syn PFF-mediated PARP activation,PARP,prevents
same,α-syn PFF-mediated cell death (PI staining),primary cortical neurons,prevents
"CN[C@H](CC(=O)O)C(=O)O [NMDA, N-methyl-D-aspartate]","activation of PARP, PAR immunoblot",α-syn [1]; [3],leads to activation of PARP
same,aggregation of α-syn after NMDA,α-syn [1]; [3],concomitant aggregation of α-syn
CN1C(=O)C(Cc2c[nH]c3ccccc23)NC1=S (centres unmarked) [Necrostatin-1],"α-syn PFF toxicity (cell death, FIGS. 47 and 48)",primary cortical neurons,had no effect
COC(=O)C[C@H](NC(=O)[C@H](C)NC(=O)[C@@H](NC(=O)OCc1ccccc1)C(C)C)C(=O)CF [Z-VAD-FMK] (Cbz-Val-Ala-Asp(OMe)-CH2F),"α-syn PFF toxicity (cell death, FIGS. 47 and 48)",primary cortical neurons,partially reduces α-syn PFF toxicity
same,"α-syn PFF toxicity (cell death, FIGS. 47 and 48)",primary cortical neurons; listed as ZVAD,modest neuroprotection
Poly(ADP-ribose) [PAR],neuronal cell death by PAR itself,"primary cortical neurons; 20 nM, 14 days",does not cause significant cell death
same,earliest time different molecular weight forms of α-syn observed,"α-syn [2]; 5 nM PAR, 37° C.",24 h
same,"fibrillization of α-syn, immunoblot","α-syn [2]; 5 nM PAR, 37° C., agitated",markedly accelerated
same,effect of temperature on α-syn fibrillization,"α-syn [2]; 5 nM PAR, indicated temperatures, 72 h",causes the fibrillization of α-syn at temperatures that are not permissive for α-syn fibrillization in the absence of PAR
same,PAR concentration of peak α-syn aggregation,α-syn [2]; 36 hours,5 nM
same,α-syn fibrillization at 1 nM PAR,α-syn [2]; 36 hours,capable of enhancing α-syn fibrillization
same,α-syn fibrillization at 20 nM PAR,α-syn [2]; 36 hours,does not appreciably increase α-syn fibrillization
same,"α-syn fibrils, TEM","α-syn [2]; in the presence of PAR, 37° C.",extensively fibrillated at 12 hours
same,"thioflavin T fluorescence, PAR alone",α-syn [2]; without α-syn,has no effect on thioflavin T fluorescence
same,"fibrillization of α-syn, thioflavin T fluorescence",α-syn [2]; α-syn with PAR,accelerates the fibrillization of α-syn
same,aggregation of α-syn after exogenous PAR via Bioporter,α-syn [1]; WT and PARP-1 KO cultures transduced with AAV-α-syn,increases the aggregation of α-syn
same,aggregation of α-syn after exogenous PAR,SH-SYSY cells; SH-SYSY WT and SH-SYSY PARP-1 KO cultures,increased the aggregation of α-syn
same,"DA concentration in the contralateral striatum, HPLC","WT mice; 1, 3 and 6 months",no significant difference of DA concentration
same,DA neuron number after PAR injection by itself,"WT mice; 1, 3 and 6 months",has no effect on DA neuron number
same,pole test,WT mice; 3 months,no significant deficits
PolyA,α-syn fibrillization with other polymer or monomer,α-syn [2]; 37° C.,had no effects on α-syn fibrillization
